Measured values reported in patent US11447466B2, “Substituted indole compounds useful as inhibitors of TLR7/8/9” (BRISTOL-MYERS SQUIBB COMPANY, priority 2017, dated 2022).

How the values were obtained:
Assay type in all cases: cell-based
[1] = molecular target: T1, human TLR8 (Homo sapiens, UniProt Q9NR97); test: TLR8 inhibition reporter assay (HEK-Blue SEAP reporter, R848 stimulation); conditions: HEK-Blue cells overexpressing human TLR8, SEAP reporter, R848 15.9 μM, 22 hour incubation
T1 construct: host or cells: HEK-Blue cells
T1 sequence (Q9NR97 27-1041): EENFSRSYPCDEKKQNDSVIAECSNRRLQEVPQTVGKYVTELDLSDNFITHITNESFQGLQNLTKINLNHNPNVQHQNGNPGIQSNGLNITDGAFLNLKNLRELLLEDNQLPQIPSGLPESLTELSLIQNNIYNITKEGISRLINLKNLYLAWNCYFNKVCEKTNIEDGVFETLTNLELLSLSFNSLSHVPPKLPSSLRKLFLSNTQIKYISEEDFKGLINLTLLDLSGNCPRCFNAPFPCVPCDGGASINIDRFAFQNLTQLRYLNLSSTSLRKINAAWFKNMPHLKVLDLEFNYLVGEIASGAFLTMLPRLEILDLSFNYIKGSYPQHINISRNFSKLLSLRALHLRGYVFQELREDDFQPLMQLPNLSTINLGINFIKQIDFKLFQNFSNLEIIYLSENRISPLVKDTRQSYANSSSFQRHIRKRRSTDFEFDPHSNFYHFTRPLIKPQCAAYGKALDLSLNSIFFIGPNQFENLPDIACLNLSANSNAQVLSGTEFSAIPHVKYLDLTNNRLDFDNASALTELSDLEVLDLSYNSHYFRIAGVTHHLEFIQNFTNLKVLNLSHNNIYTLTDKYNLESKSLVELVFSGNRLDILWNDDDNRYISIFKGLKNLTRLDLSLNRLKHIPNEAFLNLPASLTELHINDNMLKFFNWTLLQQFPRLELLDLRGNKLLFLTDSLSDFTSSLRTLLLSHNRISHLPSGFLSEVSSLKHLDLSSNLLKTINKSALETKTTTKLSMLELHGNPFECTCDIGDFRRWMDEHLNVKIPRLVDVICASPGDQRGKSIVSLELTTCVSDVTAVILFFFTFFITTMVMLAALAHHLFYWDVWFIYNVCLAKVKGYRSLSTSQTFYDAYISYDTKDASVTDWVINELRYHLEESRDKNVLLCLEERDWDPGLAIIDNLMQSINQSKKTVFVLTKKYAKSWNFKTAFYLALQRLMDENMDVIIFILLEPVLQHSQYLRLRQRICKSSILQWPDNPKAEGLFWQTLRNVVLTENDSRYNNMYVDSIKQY
Procedure, shortened: (§1)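 HEK-Blue cells overexpressing human TLR7, TLR8 or TLR9 carry a SEAP reporter driven by NF-κB/AP-1 sites. Compounds (0.05 nM–50 μM) were preincubated 30 min at room temperature, then cells were stimulated with gardiquimod 7.5 μM (TLR7), R848 15.9 μM (TLR8) or ODN2006 5 nM (TLR9) for 22 h at 37 °C.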

[2] = molecular target: T2, human TLR9 (Homo sapiens, UniProt Q9NR96); test: TLR9 inhibition reporter assay (HEK-Blue SEAP reporter, ODN2006 stimulation); conditions: HEK-Blue cells overexpressing human TLR9, SEAP reporter, ODN2006 5 nM, 22 hour incubation
T2 construct: host or cells: HEK-Blue cells
T2 sequence (Q9NR96 26-1032): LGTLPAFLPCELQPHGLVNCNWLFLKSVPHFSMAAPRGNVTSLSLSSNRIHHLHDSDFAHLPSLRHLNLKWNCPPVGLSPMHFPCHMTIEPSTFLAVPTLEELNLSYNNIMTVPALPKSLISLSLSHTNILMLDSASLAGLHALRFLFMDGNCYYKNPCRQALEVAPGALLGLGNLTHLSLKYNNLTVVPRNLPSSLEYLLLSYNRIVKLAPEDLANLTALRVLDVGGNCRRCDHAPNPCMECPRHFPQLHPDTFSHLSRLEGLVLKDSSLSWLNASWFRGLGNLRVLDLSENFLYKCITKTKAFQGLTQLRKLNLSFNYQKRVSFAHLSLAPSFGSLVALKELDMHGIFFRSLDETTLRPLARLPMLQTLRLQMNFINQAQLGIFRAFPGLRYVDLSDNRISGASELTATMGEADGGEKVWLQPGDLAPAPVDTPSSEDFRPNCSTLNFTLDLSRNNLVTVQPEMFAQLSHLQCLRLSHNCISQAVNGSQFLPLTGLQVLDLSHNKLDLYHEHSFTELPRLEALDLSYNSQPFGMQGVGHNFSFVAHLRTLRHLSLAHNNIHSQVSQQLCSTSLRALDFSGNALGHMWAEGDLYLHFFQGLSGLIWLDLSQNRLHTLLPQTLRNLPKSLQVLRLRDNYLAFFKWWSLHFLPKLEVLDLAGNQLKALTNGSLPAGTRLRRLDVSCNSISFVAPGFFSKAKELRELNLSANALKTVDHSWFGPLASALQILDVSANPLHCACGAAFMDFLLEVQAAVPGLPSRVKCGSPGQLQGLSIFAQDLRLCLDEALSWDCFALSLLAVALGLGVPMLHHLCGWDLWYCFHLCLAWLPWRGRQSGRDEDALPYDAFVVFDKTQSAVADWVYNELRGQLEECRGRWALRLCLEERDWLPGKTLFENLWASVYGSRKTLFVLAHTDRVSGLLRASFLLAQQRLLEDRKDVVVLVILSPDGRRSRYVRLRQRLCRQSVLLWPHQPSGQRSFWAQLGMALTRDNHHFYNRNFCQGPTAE
Procedure, shortened: as §1

[3] = molecular target: T3, human TLR7 (Homo sapiens, UniProt Q9NYK1); test: TLR7 inhibition reporter assay (HEK-Blue SEAP reporter, gardiquimod stimulation); conditions: HEK-Blue cells overexpressing human TLR7, SEAP reporter, gardiquimod 7.5 μM, 22 hour incubation
T3 construct: host or cells: HEK-Blue cells
T3 sequence (Q9NYK1 27-1049): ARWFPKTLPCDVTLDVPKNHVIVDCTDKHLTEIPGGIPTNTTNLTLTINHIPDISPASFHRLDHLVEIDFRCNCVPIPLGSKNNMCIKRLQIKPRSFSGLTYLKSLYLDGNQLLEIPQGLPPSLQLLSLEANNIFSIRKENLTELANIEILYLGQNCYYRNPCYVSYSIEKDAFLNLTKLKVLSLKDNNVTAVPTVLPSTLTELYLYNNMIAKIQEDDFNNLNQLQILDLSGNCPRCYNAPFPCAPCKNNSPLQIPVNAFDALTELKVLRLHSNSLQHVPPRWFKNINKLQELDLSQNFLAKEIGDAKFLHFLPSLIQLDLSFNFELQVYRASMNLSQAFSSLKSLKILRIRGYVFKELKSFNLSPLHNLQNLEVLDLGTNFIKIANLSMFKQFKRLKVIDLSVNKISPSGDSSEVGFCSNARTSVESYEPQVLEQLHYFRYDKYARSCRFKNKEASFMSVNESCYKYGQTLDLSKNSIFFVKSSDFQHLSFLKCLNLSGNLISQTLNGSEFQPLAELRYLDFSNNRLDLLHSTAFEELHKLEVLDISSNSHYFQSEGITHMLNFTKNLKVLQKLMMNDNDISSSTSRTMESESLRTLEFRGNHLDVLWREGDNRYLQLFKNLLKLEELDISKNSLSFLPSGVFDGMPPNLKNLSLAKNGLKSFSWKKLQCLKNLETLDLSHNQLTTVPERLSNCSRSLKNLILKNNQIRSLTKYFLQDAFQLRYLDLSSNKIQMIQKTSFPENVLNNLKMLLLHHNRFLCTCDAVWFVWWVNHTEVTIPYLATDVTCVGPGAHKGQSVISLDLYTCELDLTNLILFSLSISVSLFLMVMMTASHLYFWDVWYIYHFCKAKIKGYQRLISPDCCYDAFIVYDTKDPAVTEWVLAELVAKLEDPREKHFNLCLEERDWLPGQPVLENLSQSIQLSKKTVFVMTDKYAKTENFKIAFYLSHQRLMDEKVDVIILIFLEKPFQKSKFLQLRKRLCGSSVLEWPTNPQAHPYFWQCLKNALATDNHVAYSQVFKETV
Procedure, shortened: as §1

Compound | IC50 [1] [µM] | IC50 [2] [µM] | IC50 [3] [µM]
CC(C)c1c(-c2cc(-c3cncnc3)c(=O)n(C)c2)[nH]c2ccc(C3CCN(CC4COC4)CC3)cc12 [Example 94, 5-(3-isopropyl-5-(1-(oxetan-3-ylmethyl)piperidin-4-yl)-1H-indol-2-yl)-1-methyl-3-(pyrimidin-5-yl)pyridin-2(1H)-one] | 0.0013 | 2.03 | 0.008
COCCOCCOCCN1CCC(c2ccc3[nH]c(-c4cn(C)c(=O)c(Cl)c4C)c(C(C)C)c3c2)CC1 [Example 98, 3-chloro-5-(3-isopropyl-5-(1-(2-(2-(2-methoxyethoxy)ethoxy)ethyl)piperidin-4-yl)-1H-indol-2-yl)-1,4-dimethylpyridin-2(1H)-one] | 0.0104 | 8.75 | 0.0206
COCCCN1CCC(c2ccc3[nH]c(-c4cn(C)c(=O)c(Cl)c4C)c(C(C)C)c3c2)CC1 [Example 99, 3-chloro-5-(3-isopropyl-5-(1-(3-methoxypropyl)piperidin-4-yl)-1H-indol-2-yl)-1,4-dimethylpyridin-2(1H)-one] | 0.0103 | 4.98 | 0.0071
COCCOCCN1CCC(c2ccc3[nH]c(-c4cn(C)c(=O)c(Cl)c4C)c(C(C)C)c3c2)CC1 [Example 101, 3-chloro-5-(3-isopropyl-5-(1-(2-(2-methoxyethoxy)ethyl)piperidin-4-yl)-1H-indol-2-yl)-1,4-dimethylpyridin-2(1H)-one] | 0.0093 | 4.88 | 0.0128
Cc1c(-c2[nH]c3ccc(C4CCN(CCC(F)(F)F)CC4)cc3c2C(C)C)cn(C)c(=O)c1Cl [Example 102, 3-chloro-5-(3-isopropyl-5-(1-(3,3,3-trifluoropropyl)piperidin-4-yl)-1H-indol-2-yl)-1,4-dimethylpyridin-2(1H)-one] | 0.0324 | ≥ 50 | 0.0332
COCCN1CCC(c2ccc3[nH]c(-c4cc(-c5cncnc5)c(=O)n(C)c4)c(C(C)C)c3c2)CC1 [Example 103, 5-(3-isopropyl-5-(1-(2-methoxyethyl)piperidin-4-yl)-1H-indol-2-yl)-1-methyl-3-(pyrimidin-5-yl)pyridin-2(1H)-one] | 0.0013 | 2.08 | 0.0096

The remaining lines, values ahead:

IC50 [1] [µM] | IC50 [2] [µM] | IC50 [3] [µM] | Compound
0.005 | 4.39 | 0.0026 | Cc1c(-c2[nH]c3ccc(C4CCN(CCC(C)C)CC4)cc3c2C(C)C)cn(C)c(=O)c1Cl [Example 91, 3-chloro-5-(5-(1-isopentylpiperidin-4-yl)-3-isopropyl-1H-indol-2-yl)-1,4-dimethylpyridin-2(1H)-one]
0.0028 | 8.51 | 0.0032 | Cc1c(-c2[nH]c3ccc(C4CCN(CC5COC5)CC4)cc3c2C(C)C)cn(C)c(=O)c1Cl [Example 92, 3-chloro-5-(3-isopropyl-5-(1-(oxetan-3-ylmethyl)piperidin-4-yl)-1H-indol-2-yl)-1,4-dimethylpyridin-2(1H)-one]
0.0049 | 5.8 | 0.005 | Cc1c(-c2[nH]c3ccc(C4CCN(CC5CCOCC5)CC4)cc3c2C(C)C)cn(C)c(=O)c1Cl [Example 93, 3-chloro-5-(3-isopropyl-5-(1-((tetrahydro-2H-pyran-4-yl)methyl)piperidin-4-yl)-1H-indol-2-yl)-1,4-dimethylpyridin-2(1H)-one]
0.0078 | 6.09 | 0.007 | COCCN1CCC(c2ccc3[nH]c(-c4cn(C)c(=O)c(Cl)c4C)c(C(C)C)c3c2)CC1 [Example 95, 3-chloro-5-(3-isopropyl-5-(1-(2-methoxyethyl)piperidin-4-yl)-1H-indol-2-yl)-1,4-dimethylpyridin-2(1H)-one]
0.0143 | 2.86 | 0.002 | Cc1c(-c2[nH]c3ccc(C4CCN(CC#N)CC4)cc3c2C(C)C)cn(C)c(=O)c1Cl [Example 96, 2-(4-(2-(5-chloro-1,4-dimethyl-6-oxo-1,6-dihydropyridin-3-yl)-3-isopropyl-1H-indol-5-yl)piperidin-1-yl)acetonitrile]
0.0097 | 2.05 | 0.0052 | Cc1c(-c2[nH]c3ccc(C4CCN(C5CCCC5)CC4)cc3c2C(C)C)cn(C)c(=O)c1Cl [Example 97, 3-chloro-5-(5-(1-cyclopentylpiperidin-4-yl)-3-isopropyl-1H-indol-2-yl)-1,4-dimethylpyridin-2(1H)-one]
0.0023 | 3.06 | 0.0215 | CC(C)c1c(-c2cc(-c3cncnc3)c(=O)n(C)c2)[nH]c2ccc(C3CCN(CC4CCOCC4)CC3)cc12 [Example 100, 5-(3-isopropyl-5-(1-((tetrahydro-2H-pyran-4-yl)methyl)piperidin-4-yl)-1H-indol-2-yl)-1-methyl-3-(pyrimidin-5-yl)pyridin-2(1H)-one]
